Biological target: T1, human neutrophil elastase (HNE) (Homo sapiens, UniProt P08246)
T1 construct: purchased Sigma E8140
T1 sequence (P08246 30-247 limits assumed): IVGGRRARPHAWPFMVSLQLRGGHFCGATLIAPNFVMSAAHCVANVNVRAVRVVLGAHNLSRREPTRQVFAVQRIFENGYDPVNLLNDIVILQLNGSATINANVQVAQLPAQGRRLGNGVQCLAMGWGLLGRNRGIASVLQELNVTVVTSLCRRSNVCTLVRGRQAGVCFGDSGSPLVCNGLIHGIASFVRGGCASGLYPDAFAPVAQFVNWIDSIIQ
Assay: HNE enzyme assay (human neutrophil elastase enzyme activity assay)
Type: biochemical
Settings: human leukocyte elastase 0.00072 U/mL; substrate MeOSuc-Ala-Ala-Pro-Val-AMC 100 μM; 25° C. for 30 minutes; at least two separate experiments; read-out: HNE inhibition (HNE enzyme inhibition, IC50 values)
Procedure, shortened: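 Human leukocyte elastase (0.00072 U/mL) with 100 μM MeOSuc-AAPV-AMC in Tris/NaCl/CaCl2/Brij-35 buffer, pH 7.5, 1% DMSO, 30 min at 25 °C; stopped with soybean trypsin inhibitor. AMC fluorescence (380/460 nm) as % inhibition of control; IC50 from dose-response curves, ≥2 experiments.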

IC50 [nM]	Structure (SMILES)
< 1	Cn1c(-c2ccnn2-c2ccc(C#N)cc2)c(C(=O)N[C@H]2CC[C@H](CNC(=O)C[N+](C)(C)C)CC2)c(=O)n1-c1cccc(C(F)(F)F)c1 [Example 54, {[(Trans-4-{[2′-(4-cyano-phenyl)-2-methyl-5-oxo-1-(3-trifluoromethyl-phenyl)-2,5-dihydro-1H,2′H-[3,3′]bipyrazolyl-4-carbonyl]-amino}-cyclohexylmethyl)-carbamoyl]-methyl}-trimethyl-ammonium benzene sulphonate]
< 1	Cn1c(-c2ccnn2-c2ccc(C#N)cc2)c(C(=O)N[C@H]2C[C@H](C(=O)NC3CC[N+](C)(C)CC3)C2)c(=O)n1-c1cccc(C(F)(F)F)c1 [Example 55, 4-[(Trans-3-{[2′-(4-cyano-phenyl)-2-methyl-5-oxo-1-(3-trifluoromethyl-phenyl)-2,5-dihydro-1H,2′H-[3,3′]bipyrazolyl-4-carbonyl]-amino}-cyclobutanecarbonyl)-amino]-1,1-dimethyl-piperidinium benzene sulphonate]
< 1	C[C@H](NC(=O)c1c(-c2ccnn2-c2ccc(C#N)cc2)n(C)n(-c2cccc(C(F)(F)F)c2)c1=O)C(=O)N(C)C1CC[N+](C)(C)CC1 [Example 56, 4-[((S)-2-{[2′-(4-Cyano-phenyl)-2-methyl-5-oxo-1-(3-trifluoromethyl-phenyl)-2,5-dihydro-1H,2′H-[3,3′]bipyrazolyl-4-carbonyl]-amino}-propionyl)-methyl-amino]-1,1-dimethyl-piperidinium benzene sulphonate]
< 1	Cn1c(-c2ccnn2-c2ccc(C#N)cc2)c(C(=O)NC2(C(=O)NCC[N+](C)(C)C)CCCC2)c(=O)n1-c1cccc(C(F)(F)F)c1 [Example 57, {2-[(1-{[2′-(4-Cyano-phenyl)-2-methyl-5-oxo-1-(3-trifluoromethyl-phenyl)-2,5-dihydro-1H,2′H-[3,3′]bipyrazolyl-4-carbonyl]-amino}-cyclopentanecarbonyl)-amino]-ethyl}-trimethyl-ammonium benzene sulphonate]
< 1	Cn1c(-c2ccnn2-c2ccc(C#N)cc2)c(C(=O)N[C@H]2CC[C@H](C(=O)NC3CC[N+](C)(C)CC3)CC2)c(=O)n1-c1cccc(C(F)(F)F)c1 [Example 58, 4-[(4-{[2′-(4-Cyano-phenyl)-2-methyl-5-oxo-1-(3-trifluoromethyl-phenyl)-2,5-dihydro-1H,2′H-[3,3′]bipyrazolyl-4-carbonyl]-amino}-cyclohexanecarbonyl)-amino]-1,1-dimethyl-piperidinium benzene sulphonate]
< 1	Cn1c(-c2ccnn2-c2ccc(C#N)cc2)c(C(=O)N[C@H]2CC[C@H](C(=O)OC3CC[N+](C)(C)CC3)CC2)c(=O)n1-c1cccc(C(F)(F)F)c1 [Example 59, 4-(Trans-4-{[2′-(4-cyano-phenyl)-2-methyl-5-oxo-1-(3-trifluoromethyl-phenyl)-2,5-dihydro-1H,2′H-[3,3′]bipyrazolyl-4-carbonyl]-amino}-cyclohexanecarbonyloxy)-1,1-dimethyl-piperidinium benzene sulphonate]
< 1	Cn1c(-c2ccnn2-c2ccc(C#N)cc2)c(C(=O)N[C@H]2CC[C@H](C(=O)N3CCC([N+](C)(C)C)CC3)CC2)c(=O)n1-c1cccc(C(F)(F)F)c1 [Example 60, [1-(4-{[2′-(4-Cyano-phenyl)-2-methyl-5-oxo-1-(3-trifluoromethyl-phenyl)-2,5-dihydro-1H,2′H-[3,3′]bipyrazolyl-4-carbonyl]-amino}-cyclohexanecarbonyl)-piperidin-4-yl]-trimethyl-ammonium benzene sulphonate]
< 1	CN(CC[N+](C)(C)C)C(=O)C1(NC(=O)c2c(-c3ccnn3-c3ccc(C#N)cc3)n(C)n(-c3cccc(C(F)(F)F)c3)c2=O)CCCC1 [Example 61, {2-[(1-{[2′-(4-Cyano-phenyl)-2-methyl-5-oxo-1-(3-trifluoromethyl-phenyl)-2,5-dihydro-1H,2′H-[3,3′]bipyrazolyl-4-carbonyl]-amino}-cyclopentanecarbonyl)-methyl-amino]-ethyl}-trimethyl-ammonium benzene sulphonate]
< 1	Cn1c(-c2ccnn2-c2ccc(C#N)cc2)c(C(=O)N[C@H]2CC[C@H](OC(=O)C[N+](C)(C)C)CC2)c(=O)n1-c1cccc(C(F)(F)F)c1 [Example 62, (Trans-4-{[2′-(4-cyano-phenyl)-2-methyl-5-oxo-1-(3-trifluoromethyl-phenyl)-2,5-dihydro-1H,2′H-[3,3′]bipyrazolyl-4-carbonyl]-amino}-cyclohexyloxycarbonylmethyl)-trimethyl-ammonium benzene sulphonate]
< 1	Cn1c(-c2ccnn2-c2ccc(C#N)cc2)c(C(=O)NC2CCN(C(=O)CC[N+](C)(C)C)CC2)c(=O)n1-c1cccc(C(F)(F)F)c1 [Example 63, 3-(4-{[2′-(4-Cyano-phenyl)-2-methyl-5-oxo-1-(3-trifluoromethyl-phenyl)-2,5-dihydro-1H,2′H-[3,3′]bipyrazolyl-4-carbonyl]-amino}-piperidin-1-yl)-3-oxo-propyl]-trimethyl-ammonium benzene sulphonate]
< 1	Cn1c(-c2ccnn2-c2ccc(C#N)cc2)c(C(=O)NC2(C)CCN(C(=O)C[N+](C)(C)C)CC2)c(=O)n1-c1cccc(C(F)(F)F)c1 [Example 64, [2-(4-{[2′-(4-Cyano-phenyl)-2-methyl-5-oxo-1-(3-trifluoromethyl-phenyl)-2,5-dihydro-1H,2′H-[3,3′]bipyrazolyl-4-carbonyl]-amino}-4-methyl-piperidin-1-yl)-2-oxo-ethyl]-trimethyl-ammonium benzene sulphonate]
< 1	Cn1c(-c2ccnn2-c2ccc(C#N)cc2)c(C(=O)N[C@H]2CC[C@H](C(=O)OCC[N+](C)(C)C)CC2)c(=O)n1-c1cccc(C(F)(F)F)c1 [Example 65, [2-(Trans-4-{[2′-(4-cyano-phenyl)-2-methyl-5-oxo-1-(3-trifluoromethyl-phenyl)-2,5-dihydro-1H,2′H-[3,3′]bipyrazolyl-4-carbonyl]-amino}-cyclohexanecarbonyloxy)-ethyl]-trimethyl-ammonium benzene sulphonate]
< 1	C[C@H](NC(=O)c1c(-c2ccnn2-c2ccc(C#N)cc2)n(C)n(-c2cccc(C(F)(F)F)c2)c1=O)C(=O)N1CCC[N+](C)(C)CC1 [Example 66, 4-((S)-2-{[2′-(4-Cyano-phenyl)-2-methyl-5-oxo-1-(3-trifluoromethyl-phenyl)-2,5-dihydro-1H,2′H-[3,3′]bipyrazolyl-4-carbonyl]-amino}-propionyl)-1,1-dimethyl-[1,4]diazepan-1-ium benzene sulphonate]
< 1	Cn1c(-c2ccnn2-c2ccc(C#N)cc2)c(C(=O)N[C@H]2CC[C@H](c3ncc(C[N+](C)(C)C)o3)CC2)c(=O)n1-c1cccc(C(F)(F)F)c1 [Example 67, [2-(Trans-4-{[2′-(4-Cyano-phenyl)-2-methyl-5-oxo-1-(3-trifluoromethyl-phenyl)-2,5-dihydro-1H,2′H-[3,3′]bipyrazolyl-4-carbonyl]-amino}-cyclohexyl)-oxazol-5-ylmethyl]-trimethyl-ammonium benzene sulphonate]
< 1	Cn1c(-c2ccnn2-c2ccc(C#N)cc2)c(C(=O)N[C@H]2C[C@H](c3ncc(C[N+](C)(C)C)o3)C2)c(=O)n1-c1cccc(C(F)(F)F)c1 [Example 68, [2-(Trans-3-{[2′-(4-cyano-phenyl)-2-methyl-5-oxo-1-(3-trifluoromethyl-phenyl)-2,5-dihydro-1H,2′H-[3,3′]bipyrazolyl-4-carbonyl]-amino}-cyclobutyl)-oxazol-5-ylmethyl]-trimethyl-ammonium benzene sulphonate]
< 1	Cn1c(-c2ccnn2-c2ccc(C#N)cc2)c(C(=O)N[C@H]2CC[C@H](C[n+]3ccccc3)CC2)c(=O)n1-c1cccc(C(F)(F)F)c1 [Example 69, 1-(4-{[2′-(4-Cyano-phenyl)-2-methyl-5-oxo-1-(3-trifluoromethyl-phenyl)-2,5-dihydro-1H,2′H-[3,3′]bipyrazolyl-4-carbonyl]-amino}-cyclohexylmethyl)-pyridinium bromide]
< 1	Cn1cc[n+](C[C@H]2CC[C@H](NC(=O)c3c(-c4ccnn4-c4ccc(C#N)cc4)n(C)n(-c4cccc(C(F)(F)F)c4)c3=O)CC2)c1 [Example 70, 1-(4-{[2′-(4-Cyano-phenyl)-2-methyl-5-oxo-1-(3-trifluoromethyl-phenyl)-2,5-dihydro-1H,2′H-[3,3′]bipyrazolyl-4-carbonyl]-amino}-cyclohexylmethyl)-3-methyl-3H-imidazol-1-ium bromide]
< 1	CCOC(=O)c1c(-c2ccnn2-c2ccc(C#N)cc2)n(CC)n(-c2cccc(C(F)(F)F)c2)c1=O [Example 71, 2′-(4-Cyano-phenyl)-2-ethyl-5-oxo-1-(3-trifluoromethyl-phenyl)-2,5-dihydro-1H,2′H-[3,3′]bipyrazolyl-4-carboxylic acid ethyl ester]
< 1	Cn1c(-c2nccn2-c2ccc(C#N)cc2)c(C(=O)NC2CCCC2)c(=O)n1-c1cccc(C(F)(F)F)c1 [Example 72, 5-[1-(4-Cyano-phenyl)-1H-imidazol-2-yl]-1-methyl-3-oxo-2-(3-trifluoromethyl-phenyl)-2,3-dihydro-1H-pyrazole-4-carboxylic acid cyclopentyl-amide]
